Measured values published in patent US20240150362A1, “Substituted Pyrrolotriazines” (Molecure S.A., priority 2022, published 2024).
Counter-ions that a name gives are not always drawn.

These molecules were tested against T1, full-length USP7 (Homo sapiens, UniProt Q93009) (assay: Enzymatic assay to determine % inhibition of USP7 activity at 1 μM test compound (Ubiquitin-Rhodamine 110 cleavage)). Conditions: 1 μM of the test compound; given where IC50 has not been determined yet; mean of two repetitions.
T1 construct: A 45 μl reaction volume containing full-length USP7 (0.5-1.0 nM)
T1 sequence (Q93009 whole entry): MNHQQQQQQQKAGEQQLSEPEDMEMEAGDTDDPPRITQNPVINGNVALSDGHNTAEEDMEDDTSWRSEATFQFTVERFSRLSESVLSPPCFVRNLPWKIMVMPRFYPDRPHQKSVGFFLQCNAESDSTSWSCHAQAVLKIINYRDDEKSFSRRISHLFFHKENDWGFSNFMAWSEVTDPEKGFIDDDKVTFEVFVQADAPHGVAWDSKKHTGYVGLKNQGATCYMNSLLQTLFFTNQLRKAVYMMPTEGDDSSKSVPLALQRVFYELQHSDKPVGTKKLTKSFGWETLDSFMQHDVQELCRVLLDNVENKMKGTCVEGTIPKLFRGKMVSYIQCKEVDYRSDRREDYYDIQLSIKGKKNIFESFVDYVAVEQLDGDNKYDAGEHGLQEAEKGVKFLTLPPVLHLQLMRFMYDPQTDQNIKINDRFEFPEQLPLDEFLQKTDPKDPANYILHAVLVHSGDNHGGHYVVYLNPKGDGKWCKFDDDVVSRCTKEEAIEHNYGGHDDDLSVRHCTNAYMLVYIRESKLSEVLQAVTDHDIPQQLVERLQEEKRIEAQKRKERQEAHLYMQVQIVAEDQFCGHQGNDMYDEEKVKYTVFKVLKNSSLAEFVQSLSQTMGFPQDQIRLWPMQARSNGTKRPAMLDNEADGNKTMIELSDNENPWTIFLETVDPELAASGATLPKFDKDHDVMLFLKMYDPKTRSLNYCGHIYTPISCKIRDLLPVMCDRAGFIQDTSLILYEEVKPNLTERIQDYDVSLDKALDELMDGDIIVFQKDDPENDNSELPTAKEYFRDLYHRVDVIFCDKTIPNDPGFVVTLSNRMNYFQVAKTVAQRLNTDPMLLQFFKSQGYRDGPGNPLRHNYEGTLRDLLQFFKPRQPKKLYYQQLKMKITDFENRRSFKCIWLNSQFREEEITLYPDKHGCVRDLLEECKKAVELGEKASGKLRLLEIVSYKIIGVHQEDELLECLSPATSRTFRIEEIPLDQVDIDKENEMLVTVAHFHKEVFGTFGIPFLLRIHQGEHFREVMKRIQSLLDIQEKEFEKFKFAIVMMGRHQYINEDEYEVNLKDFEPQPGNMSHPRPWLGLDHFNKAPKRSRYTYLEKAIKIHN
Format: biochemical
Protocol: Enzymatic Assay to Determine % Value of Inhibition […] Activity at 1 μM […]
A 45 μl reaction volume containing full-length USP7 (0.5-1.0 nM) in 50 mM HEPES pH 7.5, 150 mM NaCl, 2 mM DTT, 1 mg/ml BSA and 0.05% Tween20 (DUB assay buffer) was assembled in wells of 96 well half area black flat bottom plates. All test compounds were first dissolved to 30 mM stocks in DMSO and subsequently introduced to enzyme 15 min after USP7 incubation with DTT at room temperature. The final concentration of tested compounds was 1 μM. The enzymatic reaction was started by adding 0.5 μM Ubiquitin-Rhodamine 110 (final concentration) and allowed to proceed for 30-60 min at 25° C., 250 RPM shaking before Rhodamine fluorescence (485 nm excitation/535 nm emission) was measured using Tecan Spark M10 plate reader. Percentage of inhibition at 1 μM was determined by the mean of two repetitions for these concentrations using Microsoft Excel software.

Row | SMILES | inhibition at 1 µM
1 | C[C@H]1CNCC(Cc2c(F)cc(Cl)cc2-c2ncnn3cc(CN4C(=O)CN(C)CC4=O)cc23)O1 (single isomer, unassigned) [Example 119, hydrochloride] | 20 to 49%
2 | Cc1cc(F)cc(-c2ncnn3cc(Cn4c(=O)ccn(C)c4=O)cc23)c1CC1CNC[C@H](C)O1 (stereo partly drawn) [Example 128, 3-((4-(5-fluoro-3-methyl-2-(((6S)-6-methylmorpholin-2-yl)methyl)phenyl)pyrrolo[2,1-f][1,2,4]triazin-6-yl)methyl)-1-methylpyrimidine-2,4(1H,3H)-dione hydrochloride] | 20 to 49%
3 | Cc1cc(Cl)cc(-c2ncnn3cc(C(=O)O)cc23)c1O[C@H]1CCCNC1 [Example 16, (S)-4-(5-chloro-3-methyl-2-(piperidin-3-yloxy)phenyl)pyrrolo[2,1-f][1,2,4]triazine-6-carboxylic acid hydrochloride] | < 20%
4 | Cc1c(CN2C(=O)C3C(C2=O)C3(C)C)cn2ncnc(-c3cc(Cl)cc4ccn(CC5(F)CCNCC5)c34)c12 (stereo not shown) [Example 21, 3-((4-(5-chloro-1-((4-fluoropiperidin-4-yl)methyl)-1H-indol-7-yl)-5-methylpyrrolo[2,1-f][1,2,4]triazin-6-yl)methyl)-6,6-dimethyl-3-azabicyclo[3.1.0]hexane-2,4-dione hydrochloride] | 50 to 70%

Second part, the molecule after the results:

Row | inhibition at 1 µM | SMILES
5 | 20 to 49% | Cc1cc(Cl)cc(-c2ncnn3cc(CN4C(=O)C5C(C4=O)C5(C)C)cc23)c1NC[C@@H]1CNCCO1 (stereo partly drawn) [Example 81, 3-((4-(5-chloro-3-methyl-2-((((S)-morpholin-2-yl)methyl)amino)phenyl)pyrrolo[2,1-f][1,2,4]triazin-6-yl)methyl)-6,6-dimethyl-3-azabicyclo[3.1.0]hexane-2,4-dione dihydrochloride]
6 | 50 to 70% | Cc1cc(Cl)cc(-c2ncnn3cc(CN4C(=O)C5C(C4=O)C5(C)C)c(C)c23)c1O[C@H]1CCCNC1 (stereo partly drawn) [Example 12, 3-((4-(5-chloro-3-methyl-2-(((S)-piperidin-3-yl)oxy)phenyl)-5-methylpyrrolo[2,1-f][1,2,4]triazin-6-yl)methyl)-6,6-dimethyl-3-azabicyclo[3.1.0]hexane-2,4-dione hydrochloride]
7 | 20 to 49% | Cc1cc(Cl)cc(-c2ncnn3cc(CN4C(=O)C5C(C4=O)C5(C)C)cc23)c1O[C@@H]1CC[C@@H](C)NC1 (stereo partly drawn) [Example 3, 3-((4-(5-chloro-3-methyl-2-(((3R,6R)-6-methylpiperidin-3-yl)oxy)phenyl)pyrrolo[2,1-f][1,2,4]triazin-6-yl)methyl)-6,6-dimethyl-3-azabicyclo[3.1.0]hexane-2,4-dione hydrochloride]
8 | 20 to 49% | Cc1cc(Cl)cc(-c2ncnn3cc(CN4C(=O)C5C(C4=O)C5(C)C)cc23)c1CC1CNCC(CF)O1 (single isomer, unassigned) [Example 43, 3-((4-(5-chloro-2-((6-(fluoromethyl)morpholin-2-yl)methyl)-3-methylphenyl)pyrrolo[2,1-f][1,2,4]triazin-6-yl)methyl)-6,6-dimethyl-3-azabicyclo[3.1.0]hexane-2,4-dione hydrochloride]
9 | 50 to 70% | Cc1cc(Cl)cc(-c2ncnn3cc(CN4C(=O)C5C(C4=O)C5(C)C)cc23)c1CC1CN[C@H](C)CO1 (stereo partly drawn) [Example 40, 3-((4-(5-chloro-3-methyl-2-(((5R)-5-methylmorpholin-2-yl)methyl)phenyl)pyrrolo[2,1-f][1,2,4]triazin-6-yl)methyl)-6,6-dimethyl-3-azabicyclo[3.1.0]hexane-2,4-dione hydrochloride]

Same assay, conditions: 1 μM of the test compound; given where IC50 has not been determined yet; mean of two repetitions; hydrochloride, 1 µM

Row | USP7 % inhibition | SMILES
10 | C* (C*: 20-49% inhibition) | Cc1cc(Cl)cc(-c2ncnn3cc(CN4C(=O)C5C(C4=O)C5(C)C)cc23)c1OC(C)C1CCNCC1.Cl (single isomer, unassigned) [Example 57, 3-((4-(5-chloro-3-methyl-2-(1-(piperidin-4-yl)ethoxy)phenyl)pyrrolo[2,1-f][1,2,4]triazin-6-yl)methyl)-6,6-dimethyl-3-azabicyclo[3.1.0]hexane-2,4-dione hydrochloride]
